Reference: US20230270112A1, “A METHOD OF DI[…] GASEOUS ENVIRONMENT, A LIQUID, OR A SOLID SURFACE” (priority 2020, published 2023)
Where two headings read alike, the source gives them in different places.

Assays:
[1] = with cucurbit[7]uril; cited from earlier work
[2] = tested on: herpes simplex virus serotype two (HSV-2); test: Titration by TCID50 assay (incl. guest-host chemistry assay); type: cell-based; conditions: mixed with the virus for 5 minutes, FIG. 3a
SARS-CoV-2 = type: cell-based
[3] = tested on: herpes simplex virus serotype two (HSV-2); test: Dose-response (plaque) assay; type: cell-based; conditions: FIG. 4a
[4] = tested on: respiratory syncytial virus (RSV); test: Dose-response (plaque) assay; type: cell-based; conditions: FIG. 4b
[5] = tested on: herpes simplex virus serotype two (HSV-2); test: Virucidal assay; type: cell-based; conditions: FIG. 5
[6] = tested on: herpes simplex virus serotype two (HSV-2); test: Time of addition study; type: cell-based; conditions: FIG. 7
[7] = tested on: respiratory syncytial virus (RSV); test: Titration by TCID50 assay; type: cell-based; conditions: FIG. 3b
[8] = tested on: herpes simplex virus serotype two (HSV-2); test: DNA exposure assay; conditions: FIG. 6

## NC12CC3CC(CC(C3)C1)C2 [ADA, 1-Adamantylamine]
[1]
  binding affinity: 1.7+/−0.8×10^14 M^−1

## cucurbit[7]uril
[2]; 20-50 mg/mL
  reduction in viral titre: approximately 5 log
SARS-CoV-2
  antiviral efficacy: largely ineffective
SARS-CoV-2; 50 mg/mL
  antiviral efficacy: highly effective
[3]
  EC50: 1270 mg/L
[4]
  EC50: 1070 mg/L
[5]
  mode of action (virucidal or virustatic): virucidal
[6]; added after the virus has been exposed to the cells (post-infection)
  viral inhibition: no viral inhibition
[6]; added directly to the virus before infection ('during infection')
  antiviral effect: an antiviral effect was observed
[6]; removed prior to viral introduction (pre-treatment)
  viral inhibition: no viral inhibition

## O=C1N2CN3C(=O)N4CN5C(=O)N6CN7C(=O)N8CN9C(=O)N%10CN%11C(=O)N%12CN%13C(=O)N%14CN%15C(=O)N%16CN1C1C2N2CN%17C(=O)N(CN%18C(=O)N(CN%19C(=O)N(CN%20C(=O)N(CN%21C(=O)N(CN%22C(=O)N(CN%23C(=O)N(CN1C2=O)C%16C%15%23)C%14C%13%22)C%12C%11%21)C%10C9%20)C8C7%19)C6C5%18)C4C3%17 (stereo not shown) [cucurbit[8]uril, Cucurbit[8]uril]
[2]
  viral titre reduction: lack of viral titre reduction
[7]
  antiviral effect: ineffective
[8]
  DNA detected following viral exposure, DNAse and PCR amplification: No DNA was detected

## O=C1N2CN3C(=O)N4CN5C(=O)N6CN7C(=O)N8CN9C(=O)N%10CN%11C(=O)N%12CN1C1C2N2CN%13C(=O)N(CN%14C(=O)N(CN%15C(=O)N(CN%16C(=O)N(CN%17C(=O)N(CN1C2=O)C%12C%11%17)C%10C9%16)C8C7%15)C6C5%14)C4C3%13 (stereo not shown) [cucurbit[6]uril]
[2]
  viral titre reduction: lack of viral titre reduction
[7]
  antiviral effect: ineffective
[8]
  DNA detected following viral exposure, DNAse and PCR amplification: DNA was detected
